pIC50: −log10 of the molar value.
Target: T1, human PAD4 (Homo sapiens, UniProt Q9UM07)
T1 construct: human PAD4 (NM_012387), A2-P663, was PCR amplified; His-SUMO (N, cleaved yes); made in house; host or cells: E. coli BL21(DE3)
Assay: In vitro PAD4 BAEE biochemical assay
Conditions: BAEE substrate 3 mM, 5 nM PAD4, 2 mM calcium chloride; geometric mean of multiple experiments
Method in brief: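 Assay was run at 25 °C using 3 mM BAEE and 5 nM human PAD4 after a 30 min compound preincubation; ammonia produced over 2 h was quantified by OPA-derived fluorescence. Full inhibition was defined by 50 µM BB-Cl-Amidine, and IC50 came from variable-slope nonlinear regression.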

T1 sequence (Q9UM07 2-663): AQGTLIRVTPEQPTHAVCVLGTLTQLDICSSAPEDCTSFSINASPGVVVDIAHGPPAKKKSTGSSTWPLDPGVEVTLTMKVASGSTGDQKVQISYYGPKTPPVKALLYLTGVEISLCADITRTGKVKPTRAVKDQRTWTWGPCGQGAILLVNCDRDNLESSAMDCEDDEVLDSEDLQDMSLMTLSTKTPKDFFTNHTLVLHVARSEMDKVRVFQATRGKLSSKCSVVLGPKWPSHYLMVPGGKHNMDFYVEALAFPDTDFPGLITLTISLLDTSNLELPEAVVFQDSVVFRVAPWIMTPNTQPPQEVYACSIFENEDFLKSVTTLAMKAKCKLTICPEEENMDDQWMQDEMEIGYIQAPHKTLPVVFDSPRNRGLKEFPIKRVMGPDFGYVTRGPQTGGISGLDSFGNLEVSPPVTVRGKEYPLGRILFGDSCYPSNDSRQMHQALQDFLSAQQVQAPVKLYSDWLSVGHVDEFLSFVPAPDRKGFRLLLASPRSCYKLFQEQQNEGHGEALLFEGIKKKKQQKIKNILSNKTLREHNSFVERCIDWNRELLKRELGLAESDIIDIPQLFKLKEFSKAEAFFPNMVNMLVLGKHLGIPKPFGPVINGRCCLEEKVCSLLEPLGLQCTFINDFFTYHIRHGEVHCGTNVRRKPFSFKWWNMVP

Structure (SMILES) | pIC50
COc1cc(C(=O)N2C[C@H]3CC[C@@H]2[C@@H]3N)cc2nc(-c3cc4ccc5nc4n3CCCCCCCC(=O)N[C@@H]5C)n(C)c12 [Example 288, (11~{R})-17-[5-[(1~{R},4~{R},7~{R})-7-amino-2-azabicyclo[2.2.1]heptane-2-carbonyl]-7-methoxy-1-methyl-benzimidazol-2-yl]-11-methyl-1,10,19-triazatricyclo[10.5.2.0^{15,18}]nonadeca-12(19),13,15(18),16-tetraen-9-one] | 7.44
COc1cc(C(=O)N[C@H]2CNCC[C@@H]2F)cc2nc(-c3cc4ccc5nc4n3CCCCCc3nn(C)nc3C(=O)N[C@@H]5C)n(C)c12 [Example 185, 2-[(2~{R})-2,7-dimethyl-4-oxo-3,6,7,8,15,21-hexazatetracyclo[13.5.2.0^{5,9}.0^{18,22}]docosa-1(21),5,8,16,18(22),19-hexaen-16-yl]-~{N}-[(3~{S),4~{S})-4-fluoro-3-piperidyl]-7-methoxy-1-methyl-benzimidazole-5-carboxamide] | 7.18
COc1cc(C(=O)N2C[C@H]3CCCN[C@H]3C2)cc2nc(-c3cc4ccc5nc4n3CCCCCCC(C)(C)C(=O)N[C@@H]5C)n(C)c12 [Example 80, (11~{R})-17-[5-[(4~{a}~{R},7~{a}~{R})-1,2,3,4,4~{a},5,7,7~{a}-octahydropyrrolo[3,4-b]pyridine-6-carbonyl]-7-methoxy-1-methyl-benzimidazol-2-yl]-8,8,11-trimethyl-1,10,19-triazatricyclo[10.5.2.0^{15,18}]nonadeca-12(19),13,15(18),16-tetraen-9-one] | 6.59
COc1cc(C(=O)N2CCC[C@@H](N)C2)cc2nc(-c3cc4ccc5nc4n3CCCCCC[C@@](C)(C(F)(F)F)C(=O)N[C@@H]5C)n(C)c12 [Example 1, (8~{R},11~{R})-17-[5-[(3~{R})-3-aminopiperidine-1-carbonyl]-7-methoxy-1-methyl-benzimidazol-2-yl]-8,11-dimethyl-8-(trifluoromethyl)-1,10,19-triazatricyclo[10.5.2.0^{15,18}]nonadeca-12(19),13,15(18),16-tetraen-9-one] | 6.98
COc1cc(C(=O)N[C@H]2CNCC[C@@H]2F)cc2nc(-c3cc4ccc5nc4n3CCCCCc3c(noc3C)C(=O)N[C@@H]5C)n(C)c12 [Example 398, 2-[(2~{R})-2,8-dimethyl-4-oxo-7-oxa-3,6,15,21-tetrazatetracyclo[13.5.2.0^{5,9}.0^{18,22}]docosa-1(21),5,8,16,18(22),19-hexaen-16-yl]-~{N}-[(3~{S},4~{S})-4-fluoro-3-piperidyl]-7-methoxy-1-methyl-benzimidazole-5-carboxamide] | 7.13
COc1cc(C(=O)N2[C@H]3CC[C@@H]2[C@H](N)C3)cc2nc(-c3cc4ccc5nc4n3CCCCCC(=O)N3CCC[C@H]53)n(C)c12 [Example 128, (2~{R})-14-[5-[(1~{R},2~{R},4~{S})-2-amino-7-azabicyclo[2.2.1]heptane-7-carbonyl]-7-methoxy-1-methyl-benzimidazol-2-yl]-6,13,19-triazatetracyclo[11.5.2.0^{2,6}.0^{16,20}] icosa-1(19),14,16(20),17-tetraen-7-one] | 7.89
COc1cc(C(=O)N2CCC[C@@H](N)C2)cc2nc(-c3cc4ccc5nc4n3C[C@H]3C[C@H]3CCCCC(=O)N[C@@H]5C)n(C)c12 [Example 118, (3~{S},5~{R},12~{R})-18-[5-[(3~{R})-3-aminopiperidine-1-carbonyl]-7-methoxy-1-methyl-benzimidazol-2-yl]-12-methyl-1,11,20-triazatetracyclo[11.5.2.0^{3,5}.0^{16,19}] icosa-13(20),14,16(19),17-tetraen-10-one] | 7.39
COc1cc(C(=O)N2C[C@H](N)[C@@H]3CC[C@H]2C3)cc2nc(-c3cc4ccc5nc4n3CC(F)(F)CCC[C@@H]3C[C@H]3C(=O)N[C@@H]5C)n(C)c12 [Example 442, (2~{R},5~{R},7~{R})-14-[5-[(1~{S),4~{R},5~{R})-4-amino-2-azabicyclo[3.2.1]octane-2-carbonyl]-7-methoxy-1-methyl-benzimidazol-2-yl]-11,11-difluoro-2-methyl-3,13,19-triazatetracyclo[11.5.2.0^{5,7).0^{16,20}] icosa-1(19),14,16(20),17-tetraen-4-one] | 7.49
COc1cc(C(=O)N2CCC[C@@H](N)C2)cc2nc(-c3cc4ccc5nc4n3C[C@@H]3C[C@H]3COC[C@H](C)C(=O)N[C@@H]5C)n(C)c12 [Example 266, (5~{R},9~{S},12~{R})-18-[5-[(3~{R})-3-aminopiperidine-1-carbonyl]-7-methoxy-1-methyl-benzimidazol-2-yl]-9,12-dimethyl-7-oxa-1,11,20-triazatetracyclo[11.5.2.0^{3,5}.0^{16,19}] icosa-13(20),14,16(19),17-tetraen-10-one] | 6.82
C[C@H]1NC(=O)C(C)(C)CCCCCCn2c(-c3nc4cc(C(=O)N[C@H]5CNCC[C@@H]5F)c(F)cc4n3C3CC3)cc3ccc1nc32 [Example 179, 1-cyclopropyl-6-fluoro-~{N}-[(3~{S},4~{S})-4-fluoro-3-piperidyl]-2-[(11~{R})-8,8,11-trimethyl-9-oxo-1,10,19-triazatricyclo[10.5.2.0^{15,18}]nonadeca-12(19),13,15(18),16-tetraen-17-yl]benzimidazole-5-carboxamide] | 7.21

Other lines, results leading:

pIC50 | Structure (SMILES)
7.68 | COc1cc(C(=O)N2C[C@H]3OC[C@@H]2[C@@H]3N)cc2nc(-c3cc4ccc5nc4n3CC(F)(F)CCC[C@@H]3C[C@H]3C(=O)N[C@@H]5C)n(C)c12 [Example 707, (2~{R},5~{R},7~{R})-14-[5-[(1~{R},4~{S},7~ {S})-7-amino-2-oxa-5-azabicyclo[2.2.1]heptane-5-carbonyl]-7-methoxy-1-methyl-benzimidazol-2-yl]-11,11-difluoro-2-methyl-3,13,19-triazatetracyclo[11.5.2.0^ {5,7}.0^{16,20}]icosa-1(19),14,16(20),17-tetraen-4-one]
7.11 | COc1cc(C(=O)N2CC[C@@H](OC)[C@@H](N)C2)cc2nc(-c3cc4ccc5nc4n3CCCCCC[C@@](C)(c3ccccn3)C(=O)N[C@@H]5C)n(C)c12 [Example 862, (8~{S},11~{R})-17-[5-[(3~{S}, 4~{R})-3-amino-4-methoxy-piperidine-1-carbonyl]-7-methoxy-1-methyl-benzimidazol-2-yl]-8,11-dimethyl-8-(2-pyridyl)-1,10,19-triazatricyclo[10.5.2.0^{15,18}] nonadeca-12(19), 13,15(18),16-tetraen-9-one]
7.60 | C[C@H]1NC(=O)c2ccc(Cl)nc2CC[C@@H]2C[C@@H]2Cn2c(-c3nc4cc(C(=O)N5C[C@H](N)[C@@H]6CC[C@H]5C6)cc(F)c4n3C3CC3)cc3ccc1nc32 [Example 709, (3~{S),5~{R},16~{R})-22-[5-[(1~{S},4~{R},5~ {R})-4-amino-2-azabicyclo[3.2.1]octane-2-carbonyl]-1-cyclopropyl-7-fluoro-benzimidazol-2-yl]-10-chloro-16-methyl-1,9,15,24-tetrazapentacyclo[15.5.2.0^ {3,5}.0^{8,13}.0^{20,23}] tetracosa-8(13),9,11, 17(24),18,20(23),21-heptaen-14-one]
7.37 | Cc1cc2c(cc1C(=O)N[C@H]1CNCC[C@@H]1F)nc(-c1cc3ccc4nc3n1CC(F)(F)CCC[C@@H]1C[C@H]1C(=O)N[C@@H]4C)n2C [Example 551, 2-[(2~{R},5~{R},7~ {R})-11,11-difluoro-2-methyl-4-oxo-3,13,19-triazatetracyclo[11.5.2.0^ {5,7).0^{16,20}]icosa-1(19),14,16(20),17-tetraen-14-yl]-~{N}-[(3~ {S},4~{S})-4-fluoro-3-piperidyl]-1,6-dimethyl-benzimidazole-5-carboxamide]
6.91 | CO[C@@H]1CCN(C(=O)c2cc(F)c3c(c2)nc(-c2cc4ccc5nc4n2CCCCCC[C@](F)(c2cccc(Cl)n2)C(=O)N[C@@H]5C)n3C2CC2)C[C@@H]1N [Example 876, (8~{S},11~{R})-17-[5-[(3~{S}, 4~{R})-3-amino-4-methoxy-piperidine-1-carbonyl]-1-cyclopropyl-7-fluoro-benzimidazol-2-yl]-8-(6-chloro-2-pyridyl)-8-fluoro-11-methyl-1,10,19-triazatricyclo [10.5.2.0^{15,18}]nonadeca-12(19),13,15(18), 16-tetraen-9-one]
7.57 | C[C@H]1NC(=O)c2ccc(Cl)nc2CCCCCn2c(-c3nc4cc(C(=O)N5C[C@H](N)[C@@H]6CC[C@H]5C6)cc(F)c4n3[C@H]3C[C@H]3F)cc3ccc1nc32 [Example 846, (2~{R})-17-[5-[(1~{S),4~{R}, 5~{R})-4-amino-2-azabicyclo [3.2.1]octane-2-carbonyl]-7-fluoro-1-[(1~{S},2~{R})-2-fluorocyclopropyl]benzimidazol-2-yl]-8-chloro-2-methyl-3,9,16,22-tetrazatetracyclo[14.5.2.0^ {5,10).0^{19,23}]tricosa-1(22),5(10),6,8,17,19(23),20-heptaen-4-one]
7.25 | C[C@H]1NC(=O)[C@@]2(C)C[C@@H]2CCCCCn2c(-c3nc4cc(C(=O)N[C@H]5CNCC[C@@H]5F)c(F)cc4n3C)cc3ccc1nc32 [Example 548, 2-[(2~{R},5~{S},7~ {S})-2,5-dimethyl-4-oxo-3,13,19-triazatetracyclo[11.5.2.0^ {5,7}.0^{16,20}]icosa-1(19),14,16(20),17-tetraen-14-yl]-6-fluoro-~{N}-[(3~{S},4~{S})-4-fluoro-3-piperidyl]-1-methyl-benzimidazole-5-carboxamide]
7.31 | C[C@H]1NC(=O)c2ccc(C(F)(F)F)nc2CCCCCn2c(-c3nc4cc(C(=O)N5C[C@H](N)[C@@H]6CC[C@H]5C6)cc(F)c4n3C3CC3)cc3ccc1nc32 [Example 474, (2~{R})-17-[5-[(1~{S},4~{R},5~{R})-4-amino-2-azabicyclo[3.2.1]octane-2-carbonyl]-1-cyclopropyl-7-fluoro-benzimidazol-2-yl]-2-methyl-8-(trifluoromethyl)-3,9,16,22-tetrazatetracyclo[14.5.2.0^{5,10}.0^{19,23}] tricosa-1(22),5(10),6,8,17,19(23),20-heptaen-4-one]
